Results reported in the supplement of paper PMC10307832.

Assays:
Test in all cases: relative viability (nuclei count vs DMSO), 5 days (fraction); higher = more cells survive
[1] = tested on: A-427
In short: (§1)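 After 5 days of treatment, lung cancer cells in 1536-well plates were fixed and stained in a single step (final 0.05% Triton X-100, 1% formaldehyde, 1 ug/ml Hoechst) and their nuclei counted on 4× images. Treatment had been applied by pin tool the day after seeding as one drug alone or as a fixed anchor-drug dose with five library-drug doses (not always all listed) in √10 steps. Relative viability is the nuclei count of treated wells divided by that of vehicle wells, and values are medians of duplicate plates.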

[2] = tested on: COR-L 105
In short: as §1

[3] = tested on: ChaGo-K-1
In short: as §1

[4] = tested on: EKVX
In short: as §1

[5] = tested on: EMC-BAC-2
In short: as §1

[6] = tested on: H3255
In short: as §1

[7] = tested on: HCC-366
In short: as §1

[8] = tested on: LK-2
In short: as §1

[9] = tested on: LOU-NH91
In short: as §1

[10] = tested on: NCI-H1666
In short: as §1

[11] = tested on: NCI-H1734
In short: as §1

[12] = tested on: NCI-H1755
In short: as §1

[13] = tested on: NCI-H1975
In short: as §1

[14] = tested on: NCI-H2170
In short: as §1

[15] = tested on: NCI-H23
In short: as §1

[16] = tested on: NCI-H441
In short: as §1

[17] = tested on: NCI-H520
In short: as §1

[18] = tested on: NCI-H596
In short: as §1

[19] = tested on: PC-3 [JPC-3]
In short: as §1

[20] = tested on: SK-MES-1
In short: as §1

[21] = tested on: SW 900
In short: as §1

Question: What does the source list for O=c1cc(-c2cccc3c2Sc2ccccc2S3)oc(N2CCOCC2)c1 + Cc1cc(Nc2cc(N3CCN(C)CC3)nc(Sc3ccc(NC(=O)C4CC4)cc3)n2)n[nH]1 [Tozasertib] (partner 0.1 µM)?
Answer: relative viability ([1]; first compound 0.08 µM): 0.176; relative viability ([1]; first compound 0.253 µM): 0.179; relative viability ([1]; first compound 0.8 µM): 0.196; relative viability ([1]; first compound 8 µM): 0.204; relative viability ([2]; first compound 0.08 µM): 0.319; relative viability ([2]; first compound 0.253 µM): 0.357; relative viability ([2]; first compound 0.8 µM): 0.32; relative viability ([2]; first compound 2.53 µM): 0.363; relative viability ([2]; first compound 8 µM): 0.414; relative viability ([3]; first compound 0.08 µM): 0.213; relative viability ([3]; first compound 0.253 µM): 0.215; relative viability ([3]; first compound 0.8 µM): 0.218; relative viability ([3]; first compound 2.53 µM): 0.21; relative viability ([3]; first compound 8 µM): 0.209; relative viability ([4]; first compound 0.08 µM): 0.517; relative viability ([4]; first compound 0.253 µM): 0.376; relative viability ([4]; first compound 0.8 µM): 0.451; relative viability ([4]; first compound 2.53 µM): 0.377; relative viability ([4]; first compound 8 µM): 0.412; relative viability ([5]; first compound 0.08 µM): 0.242; relative viability ([5]; first compound 0.253 µM): 0.299; relative viability ([5]; first compound 0.8 µM): 0.295; relative viability ([5]; first compound 2.53 µM): 0.257; relative viability ([5]; first compound 8 µM): 0.293; relative viability ([6]; first compound 0.08 µM): 0.441; relative viability ([6]; first compound 0.253 µM): 0.604; relative viability ([6]; first compound 0.8 µM): 0.759; relative viability ([6]; first compound 2.53 µM): 0.686; relative viability ([6]; first compound 8 µM): 0.867; relative viability ([7]; first compound 0.08 µM): 0.144; relative viability ([7]; first compound 0.253 µM): 0.367; relative viability ([7]; first compound 0.8 µM): 0.093; relative viability ([7]; first compound 2.53 µM): 0.0682; relative viability ([7]; first compound 8 µM): 0.0642; relative viability ([8]; first compound 0.08 µM): 0.184; relative viability ([8]; first compound 0.253 µM): 0.165; relative viability ([8]; first compound 0.8 µM): 0.176; relative viability ([8]; first compound 2.53 µM): 0.162; relative viability ([8]; first compound 8 µM): 0.16; relative viability ([9]; first compound 0.08 µM): 0.652; relative viability ([9]; first compound 0.253 µM): 0.678; relative viability ([9]; first compound 0.8 µM): 0.638; relative viability ([9]; first compound 2.53 µM): 0.568; relative viability ([9]; first compound 8 µM): 0.679; relative viability ([10]; first compound 0.08 µM): 0.612; relative viability ([10]; first compound 0.253 µM): 0.603; relative viability ([10]; first compound 0.8 µM): 0.625; relative viability ([10]; first compound 2.53 µM): 0.539; relative viability ([10]; first compound 8 µM): 0.615; relative viability ([11]; first compound 0.08 µM): 0.271; relative viability ([11]; first compound 0.253 µM): 0.261; relative viability ([11]; first compound 0.8 µM): 0.265; relative viability ([11]; first compound 8 µM): 0.26; relative viability ([12]; first compound 0.08 µM): 0.609; relative viability ([12]; first compound 0.253 µM): 0.582; relative viability ([12]; first compound 0.8 µM): 0.592; relative viability ([12]; first compound 2.53 µM): 0.64; relative viability ([12]; first compound 8 µM): 0.567; relative viability ([13]; first compound 0.08 µM): 0.867; relative viability ([13]; first compound 0.253 µM): 0.803; relative viability ([13]; first compound 0.8 µM): 0.653; relative viability ([13]; first compound 2.53 µM): 0.341; relative viability ([13]; first compound 8 µM): 0.299; relative viability ([14]; first compound 0.08 µM): 0.78; relative viability ([14]; first compound 0.253 µM): 0.739; relative viability ([14]; first compound 0.8 µM): 0.894; relative viability ([14]; first compound 2.53 µM): 0.715; relative viability ([14]; first compound 8 µM): 0.676; relative viability ([15]; first compound 0.08 µM): 0.629; relative viability ([15]; first compound 0.253 µM): 0.341; relative viability ([15]; first compound 0.8 µM): 0.357; relative viability ([15]; first compound 2.53 µM): 0.296; relative viability ([15]; first compound 8 µM): 0.283; relative viability ([16]; first compound 0.08 µM): 0.686; relative viability ([16]; first compound 0.253 µM): 0.693; relative viability ([16]; first compound 0.8 µM): 0.793; relative viability ([16]; first compound 2.53 µM): 0.598; relative viability ([16]; first compound 8 µM): 0.632; relative viability ([17]; first compound 0.08 µM): 0.383; relative viability ([17]; first compound 0.253 µM): 0.375; relative viability ([17]; first compound 0.8 µM): 0.502; relative viability ([17]; first compound 2.53 µM): 0.472; relative viability ([17]; first compound 8 µM): 0.421; relative viability ([18]; first compound 0.08 µM): 0.758; relative viability ([18]; first compound 0.253 µM): 0.892; relative viability ([18]; first compound 0.8 µM): 1.08; relative viability ([18]; first compound 2.53 µM): 0.762; relative viability ([18]; first compound 8 µM): 0.997; relative viability ([19]; first compound 0.08 µM): 0.861; relative viability ([19]; first compound 0.253 µM): 0.871; relative viability ([19]; first compound 0.8 µM): 0.827; relative viability ([19]; first compound 2.53 µM): 0.805; relative viability ([19]; first compound 8 µM): 0.714; relative viability ([20]; first compound 0.08 µM): 0.902; relative viability ([20]; first compound 0.253 µM): 1.04; relative viability ([20]; first compound 0.8 µM): 0.879; relative viability ([20]; first compound 2.53 µM): 0.848; relative viability ([20]; first compound 8 µM): 0.852; relative viability ([21]; first compound 0.08 µM): 0.754; relative viability ([21]; first compound 0.253 µM): 0.543; relative viability ([21]; first compound 0.8 µM): 0.433; relative viability ([21]; first compound 2.53 µM): 0.486; relative viability ([21]; first compound 8 µM): 0.5
